# According to patent US20240116985A1, “STAPLED PEPTIDES AND METHODS THEREOF” (priority 2020, published 2024):
# Read-outs that look alike come from different tables or passages of the source.
# Target: T1, full-length beta-Catenin (Uniprot ID P35222) (Homo sapiens, UniProt P35222)
# T1 construct: 10 nM full-length beta-Catenin (Uniprot ID P35222)
# T1 sequence (P35222 1-781): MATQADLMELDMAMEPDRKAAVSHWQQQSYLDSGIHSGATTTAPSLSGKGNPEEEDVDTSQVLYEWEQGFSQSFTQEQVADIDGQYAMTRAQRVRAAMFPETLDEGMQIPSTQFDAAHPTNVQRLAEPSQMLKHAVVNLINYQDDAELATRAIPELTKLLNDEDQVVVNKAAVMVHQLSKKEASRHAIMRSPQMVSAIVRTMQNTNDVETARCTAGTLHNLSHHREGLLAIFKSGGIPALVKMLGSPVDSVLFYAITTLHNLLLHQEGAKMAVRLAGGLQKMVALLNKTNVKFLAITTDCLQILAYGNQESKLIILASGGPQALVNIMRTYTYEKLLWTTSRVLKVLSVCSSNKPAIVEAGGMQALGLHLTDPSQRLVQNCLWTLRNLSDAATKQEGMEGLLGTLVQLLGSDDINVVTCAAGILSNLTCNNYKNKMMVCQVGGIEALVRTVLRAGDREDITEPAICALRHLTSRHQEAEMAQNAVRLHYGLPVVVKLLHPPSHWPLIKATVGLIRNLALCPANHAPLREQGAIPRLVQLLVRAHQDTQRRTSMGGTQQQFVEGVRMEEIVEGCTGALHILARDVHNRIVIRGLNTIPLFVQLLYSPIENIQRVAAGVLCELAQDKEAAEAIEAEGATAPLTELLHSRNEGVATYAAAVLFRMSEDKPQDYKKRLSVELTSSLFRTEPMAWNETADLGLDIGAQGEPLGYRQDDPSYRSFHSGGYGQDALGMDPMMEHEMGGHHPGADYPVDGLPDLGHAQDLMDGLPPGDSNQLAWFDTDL
# Experiment: Fluorescence polarization IC50 (beta-catenin / 5FAM-TCF4 10-53 competition)
# Assay type: binding
# [1] = fluorescence polarization, read-out: beta-Catenin FP IC50
Structure (SMILES),IC50 [1] [nM],"IC50 (beta-Catenin FP IC50, fluorescence polarization) [nM]"
"CC(=O)N1CCC[C@]12CC=CCCCC1(CCCC=CCCCOC(=O)N3CC[C@@](C(=O)N[C@@H](Cc4cccnc4)C(=O)N[C@@H](Cc4csc5ccccc45)C(=O)N[C@@H](CCO)C(N)=O)(C3)NC(=O)[C@H](CC(N)=O)NC(=O)[C@H](Cc3ccccc3)NC(=O)[C@H](C)NC(=O)[C@H](CCCCNC(C)C)NC(=O)[C@H](CCC(N)=O)NC(=O)[C@H](CC(=O)O)NC1=O)NC(=O)[C@H](CC1CCCCC1)NC(=O)[C@H](CC(N)=O)NC2=O (stereo partly drawn) [I-1927, Ac-PL3-Asn-Cha-B5-Asp-Gln-iPrLys-Ala-Phe-Asn-PyrS2-3PyrA-BztA-Hse-NH2]",5140,–
"CC(=O)N1CCC[C@]12CC=CCCCC1(CCCC=CCCCOC(=O)N3CC[C@@](C(=O)N[C@@H](Cc4ccccc4)C(=O)N[C@@H](Cc4csc5ccccc45)C(=O)N[C@@H](CCO)C(N)=O)(C3)NC(=O)[C@H](CCO)NC(=O)[C@H](Cc3ccccc3)NC(=O)[C@H](C)NC(=O)[C@H](CCCCNC(C)C)NC(=O)[C@H](CCC(N)=O)NC(=O)[C@H](CC(=O)O)NC1=O)NC(=O)[C@H](CC1CCCCC1)NC(=O)[C@H](CC(N)=O)NC2=O (stereo partly drawn) [I-1922, Ac-PL3-Asn-Cha-B5-Asp-Gln-iPrLys-Ala-Phe-Hse-PyrS2-Phe-BztA-Hse-NH2]",457,–
"CC(=O)N1CCC[C@]12CC=CCCCC1(CCCC=CCCCOC(=O)N3CC[C@@](C(=O)N[C@@H](Cc4ccsc4)C(=O)N[C@@H](Cc4csc5ccccc45)C(=O)N[C@@H](CCC(N)=O)C(N)=O)(C3)NC(=O)[C@H](CC(N)=O)NC(=O)[C@H](Cc3ccccc3)NC(=O)[C@H](C)NC(=O)[C@H](C)NC(=O)[C@H]([C@@H](C)O)NC(=O)[C@H](CC(N)=O)NC1=O)NC(=O)[C@H](CC(C)(C)C)NC(=O)[C@H](Cc1ccccc1C(=O)O)NC2=O (single isomer, unassigned) [I-2137, Ac-PL3-2COOHF-Npg-B5-Asn-Thr-Ala-Ala-Phe-Asn-PyrS2-3Thi-BztA-Gln-NH2]",1900,–
"CC(=O)N1CCC[C@]12CC=CCCCC1(CCCC=CCCCOC(=O)N3CC[C@@](C(=O)N[C@@H](Cc4ccsc4)C(=O)N[C@@H](Cc4csc5ccccc45)C(=O)N[C@@H](CCC(N)=O)C(N)=O)(C3)NC(=O)[C@H](CC(C)C)NC(=O)[C@H](Cn3cc(CN(C)C)nn3)NC(=O)[C@H](C)NC(=O)[C@H](C)NC(=O)[C@H](CN(CC(=O)O)CC(F)(F)F)NC(=O)[C@H](CC(=O)O)NC1=O)NC(=O)[C@H](CC(C)(C)C)NC(=O)[C@H](CC(=O)O)NC2=O (stereo partly drawn) [I-1855, Ac-PL3-Asp-Npg-B5-Asp-TfeGA-Ala-Ala-[CH2NMe2]TriAzDap-Leu-PyrS2-3Thi-BztA-Gln-NH2]",849,–
"CC(=O)N1CCC[C@]12CC=CCCCC1(CCCC=CCCCOC(=O)N3CC[C@@](C(=O)N[C@@H](Cc4ccccc4)C(=O)N[C@@H](Cc4csc5ccccc45)C(=O)N[C@@H](CCO)C(N)=O)(C3)NC(=O)[C@H](CC(N)=O)NC(=O)[C@H](Cc3ccccc3C(N)=O)NC(=O)[C@H](C)NC(=O)[C@H](CCCCNC(C)C)NC(=O)[C@H](CCC(N)=O)NC(=O)[C@H](CC(=O)O)NC1=O)NC(=O)[C@H](CC1CCCCC1)NC(=O)[C@H](CC(N)=O)NC2=O (stereo partly drawn) [I-2173, Ac-PL3-Asn-Cha-B5-Asp-Gln-iPrLys-Ala-2cbmf-Asn-PyrS2-Phe-BztA-Hse-NH2]",3070,–
"CC(=O)N1CCC[C@]12CC=CCCCC1(CCCC=CCCCOC(=O)N3CC[C@@](C(=O)N[C@@H](Cc4ccsc4)C(=O)N[C@@H](Cc4csc5ccccc45)C(=O)N[C@@H](CC(C)C)C(N)=O)(C3)NC(=O)[C@H](CC(C)C)NC(=O)[C@H](Cc3ccccc3)NC(=O)[C@H](C)NC(=O)[C@H](C)NC(=O)[C@H](CC(=O)O)NC(=O)[C@H](CC(=O)O)NC1=O)NC(=O)[C@H]([C@@H](C)O)NC(=O)[C@H](CC(=O)O)NC2=O (stereo partly drawn) [I-1415, Ac-PL3-Asp-Thr-B5-Asp-Asp-Ala-Ala-Phe-Leu-PyrS2-3Thi-BztA-Leu-NH2]",–,72
"CC(=O)N1CCC[C@]12CC=CCCCC1(CCCC=CCCCOC(=O)N3CC[C@@](C(=O)N[C@@H](Cc4ccsc4)C(=O)N[C@@H](Cc4csc5ccccc45)C(=O)N[C@@H](CCC(N)=O)C(N)=O)(C3)NC(=O)[C@H](CC(N)=O)NC(=O)[C@H](Cc3ccccc3)NC(=O)[C@H](C)NC(=O)[C@H](C)NC(=O)[C@H](CC(=O)O)NC(=O)[C@H](CC(=O)O)NC1=O)NC(=O)[C@H](CC(C)(C)C)NC(=O)[C@H](Cn1cc(C(C)(C)C(=O)O)nn1)NC2=O (stereo partly drawn) [I-2330, Ac-PL3-[CMe2CO2H]TriAzDap-Npg-B5-Asp-Asp-Ala-Ala-Phe-Asn-PyrS2-3Thi-BztA-Gln-NH2]",3860,–
"CC(=O)N1CCC[C@]12CC=CCCCC1(CCCC=CCCCOC(=O)N3CC[C@@](C(=O)N[C@@H](Cc4cccc(Br)c4)C(=O)N[C@@H](Cc4ccccc4)C(=O)N[C@@H](CCC(N)=O)C(N)=O)(C3)NC(=O)[C@H](CC(C)C)NC(=O)[C@H](Cc3ccccc3)NC(=O)[C@H](C)NC(=O)[C@H](C)NC(=O)[C@H](Cc3cccc(C(=O)O)c3)NC(=O)[C@H](CC(=O)O)NC1=O)NC(=O)[C@H](CC(C)(C)C)NC(=O)[C@H](CC(=O)O)NC2=O (stereo partly drawn) [I-2153, Ac-PL3-Asp-Npg-B5-Asp-3COOHF-Ala-Ala-Phe-Leu-PyrS2-3BrF-Phe-Gln-NH2]",1480,–

# Second part, led by results:
IC50 [1] [nM],Structure (SMILES),"IC50 (beta-Catenin FP IC50, fluorescence polarization) [nM]"
272,"CC(=O)N1CCC[C@]12CC=CCCCC1(CCCC=CCCCOC(=O)N3CC[C@@](C(=O)N[C@@H](Cc4ccsc4)C(=O)N[C@@H](Cc4csc5ccccc45)C(=O)N[C@@H](C)C(N)=O)(C3)NC(=O)[C@H](CC(C)C)NC(=O)[C@H](Cc3ccccc3)NC(=O)[C@H](C)NC(=O)[C@H](C)NC(=O)[C@H](Cc3cccc(C(=O)O)c3)NC(=O)[C@H](CC(=O)O)NC1=O)NC(=O)[C@H](CC(C)(C)C)NC(=O)[C@H]([C@@H](O)C(=O)O)NC2=O (stereo partly drawn) [I-2258, Ac-PL3-RbOHAsp-Npg-B5-Asp-3COOHF-Ala-Ala-Phe-Leu-PyrS2-3Thi-BztA-Ala-NH2]",–
14,"CC(=O)N1CCC[C@]12CC=CCCCC1(CCCC=CCCCOC(=O)N3CC[C@@](C(=O)N[C@@H](Cc4ccsc4)C(=O)N[C@@H](Cc4csc5ccccc45)C(=O)N[C@@H](CCC(N)=O)C(N)=O)(C3)NC(=O)[C@H](CC(N)=O)NC(=O)[C@H](Cc3ccccc3N)NC(=O)[C@H](C)NC(=O)[C@H](C)NC(=O)[C@H](CC(=O)O)NC(=O)[C@H](CC(=O)O)NC1=O)NC(=O)[C@H](CC(C)(C)C)NC(=O)[C@H](CC(=O)O)NC2=O (stereo partly drawn) [I-1728, Ac-PL3-Asp-Npg-B5-Asp-Asp-Ala-Ala-2NH2F-Asn-PyrS2-3Thi-BztA-Gln-NH2]",–
48,"C[C@@H]1NC(=O)[C@H](C)NC(=O)[C@H](CC(=O)O)NC(=O)[C@H](CC(=O)O)NC(=O)C2(CCCC=CCCCOC(=O)N3CC[C@@](C(=O)N[C@@H](Cc4ccccc4)C(=O)N[C@@H](Cc4csc5ccccc45)C(=O)N[C@@H](CO)C(N)=O)(C3)NC(=O)[C@H](CO)NC(=O)[C@H](Cc3ccccc3)NC1=O)CCCC=CC[C@]1(CCCN1C(=O)CCCN(C)C)C(=O)N[C@@H](CC(=O)O)C(=O)N[C@@H](CC(C)(C)C)C(=O)N2 (stereo partly drawn) [I-1354, NdiMeButC-PL3-Asp-Npg-B5-Asp-Asp-Ala-Ala-Phe-Ser-PyrS2-Phe-BztA-Ser-NH2]",–
324,"CC(=O)N1CCC[C@]12CCCCCC1(CCCCCCOC(=O)N3CC[C@@](C(=O)N[C@@H](Cc4ccsc4)C(=O)N[C@@H](Cc4csc5ccccc45)C(=O)N[C@@H](CCC(N)=O)C(N)=O)(C3)NC(=O)[C@H](CC(C)C)NC(=O)[C@H](Cc3ccccc3)NC(=O)[C@H](C)NC(=O)[C@H](C)NC(=O)[C@H](CC(=O)O)NC(=O)[C@H](CC(=O)O)NC1=O)NC(=O)[C@H](CC(C)(C)C)NC(=O)[C@H](CC(=O)O)NC2=O (stereo partly drawn) [I-1974, Ac-PL3-Asp-Npg-B4-Asp-Asp-Ala-Ala-Phe-Leu-PyrS1-3Thi-BztA-Gln-NH2]",–
181,"CC(=O)N1CCC[C@]12CC=CCCCC1(CCCC=CCCOC(=O)N3CC[C@@](C(=O)N[C@@H](Cc4ccsc4)C(=O)N[C@@H](Cc4csc5ccccc45)C(=O)N[C@@H](CCC(N)=O)C(N)=O)(C3)NC(=O)[C@H](CC(N)=O)NC(=O)[C@H](Cc3ccccc3)NC(=O)[C@H](C)NC(=O)[C@H](C)NC(=O)[C@H](CC(=O)O)NC(=O)[C@H](CC(=O)O)NC1=O)NC(=O)[C@H](CC(C)(C)C)NC(=O)[C@H](CC(=O)O)NC2=O (stereo partly drawn) [I-1812, Ac-PL3-Asp-Npg-B5-Asp-Asp-Ala-Ala-Phe-Asn-PyrS1-3Thi-BztA-Gln-NH2]",–
9,"CC(=O)N1CCC[C@]12CC=CCCCC1(CCCC=CCCCOC(=O)N3CC[C@@](C(=O)N[C@@H](Cc4ccccc4)C(=O)N[C@@H](Cc4csc5ccccc45)C(=O)N[C@@H](CCC(N)=O)C(N)=O)(C3)NC(=O)[C@H](CC(C)C)NC(=O)[C@H](Cc3ccccc3)NC(=O)[C@H](C)NC(=O)[C@H](C)NC(=O)[C@H](CC(=O)O)NC(=O)[C@H](CC(=O)O)NC1=O)NC(=O)[C@H](CC(C)C)NC(=O)[C@H](CC(=O)O)NC2=O (stereo partly drawn) [I-1402, Ac-PL3-Asp-Leu-B5-Asp-Asp-Ala-Ala-Phe-Leu-PyrS2-Phe-BztA-Gln-NH2]",–
